Test results published in US12655116B2, “Substituted isophthalic acid diamides” (Bayer Aktiengesellschaft, priority 2020, dated 2026).

Experiments:
AMARE [1] = test: Pre-emergence herbicidal action against AMARE; format: in vivo, Amaranthus retroflexus
Procedure, shortened: (§1)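 Sandy loam pots, seeds covered with soil, then surface-treated with WP or EC formulations at 600–800 l/ha water plus 0.2% wetting agent. Greenhouse, 3 weeks. Percent damage vs untreated controls.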

SETVI [2] = test: Post-emergence herbicidal action against SETVI; format: in vivo, Setaria viridis
Procedure, shortened: (§2)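 Visual % rating (0% = as untreated, 100% = dead) ~3 wk after spraying one-leaf-stage plants grown in sandy loam; WP/EC in water at 600–800 l/ha, 0.2% wetting agent.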

ABUTH [3] = test: Pre-emergence herbicidal action against ABUTH; format: in vivo, Abutilon theophrasti; conditions: for Pre-emergence action against ABUTH (herbicidal activity): 80 g/ha, scored visually after 3 weeks vs untreated controls (100% = plants have died, 0% = like control plants); for Pre-emergence action against ABUTH (herbicidal activity in percent): dosage 20 g/ha, scored visually after 3 weeks vs untreated controls, 100% = plants have died, 0% = like control plants
Procedure, shortened: as §1

ABUTH [4] = test: Post-emergence herbicidal action against ABUTH; format: in vivo, Abutilon theophrasti; conditions: visual assessment about 3 weeks after treatment vs untreated controls
Procedure, shortened: as §2

VIOTR [5] = test: Post-emergence herbicidal action against VIOTR; format: in vivo, Viola tricolor
Procedure, shortened: as §2

ALOMY [6] = test: Post-emergence herbicidal action against ALOMY; format: in vivo, Alopecurus myosuroides; conditions: dosage 20 g/ha, visual assessment about 3 weeks after treatment vs untreated controls
Procedure, shortened: as §2

PHBPU [7] = test: Pre-emergence herbicidal action against PHBPU; format: in vivo, Pharbitis purpurea; conditions: dosage 80 g/ha
Procedure, shortened: as §1

PHBPU [8] = test: Post-emergence herbicidal action against PHBPU; format: in vivo, Pharbitis purpurea
Procedure, shortened: as §2

ALOMY [9] = test: Pre-emergence herbicidal action against ALOMY; format: in vivo, Alopecurus myosuroides; conditions: 80 g/ha, pre-emergence, scored visually after 3 weeks vs untreated controls (100% = plants have died, 0% = like control plants)
Procedure, shortened: as §1

MATIN [10] = test: Post-emergence herbicidal action against MATIN; format: in vivo, Matricaria inodora
Procedure, shortened: as §2

POLCO = test: Pre-emergence herbicidal action against POLCO; format: in vivo, Polygonum convolvulus
Procedure, shortened: as §1

VIOTR [11] = test: Pre-emergence herbicidal action against VIOTR; format: in vivo, Viola tricolor
Procedure, shortened: as §1

ECHCG [12] = test: Post-emergence herbicidal action against ECHCG; format: in vivo, Echinochloa crus-galli
Procedure, shortened: as §2

SETVI [13] = test: Pre-emergence herbicidal action against SETVI; format: in vivo, Setaria viridis
Procedure, shortened: as §1

AVEFA [14] = test: Post-emergence herbicidal action against AVEFA; format: in vivo, Avena fatua; conditions: 20 g/ha, visual assessment about 3 weeks after treatment, 100% = plants have died, 0% = like control plants
Procedure, shortened: as §2

AMARE [15] = test: Post-emergence herbicidal action against AMARE; format: in vivo, Amaranthus retroflexus; conditions: 20 g/ha, visual assessment about 3 weeks after treatment, 100% = plants have died, 0% = like control plants
Procedure, shortened: as §2

ECHCG [16] = test: Pre-emergence herbicidal action against ECHCG; format: in vivo, Echinochloa crus-galli
Procedure, shortened: as §1

VERPE [17] = test: Post-emergence herbicidal action against VERPE; format: in vivo, Veronica persica
Procedure, shortened: as §2

MATIN [18] = test: Pre-emergence herbicidal action against MATIN; format: in vivo, Matricaria inodora
Procedure, shortened: as §1

AVEFA [19] = test: Pre-emergence herbicidal action against AVEFA; format: in vivo, Avena fatua; conditions: 80 g/ha, pre-emergence
Procedure, shortened: as §1

VERPE [20] = test: Pre-emergence herbicidal action against VERPE; format: in vivo, Veronica persica; conditions: dosage 80 g/ha
Procedure, shortened: as §1

DIGSA [21] = test: Post-emergence herbicidal action against DIGSA; format: in vivo, Digitaria sanguinalis; conditions: for Post-emergence action against DIGSA: 20 g/ha
Procedure, shortened: as §2

DIGSA [22] = test: Pre-emergence herbicidal action against DIGSA; format: in vivo, Digitaria sanguinalis
Procedure, shortened: as §1

[23] = 20 g/ha, scored visually after 3 weeks vs untreated controls, 100% = plants have died, 0% = like control plants
[24] = 80 g/ha, scored visually after 3 weeks vs untreated controls (100% = plants have died, 0% = like control plants)

SMILES | Pre-emergence action against AMARE in % (AMARE [1]; [23]) [%] | Pre-emergence action against AMARE in % (AMARE [1]; [24]) [%] | Post-emergence action against SETVI in % (SETVI [2]; dosage 20 g/ha) [%] | Pre-emergence action against ABUTH (herbicidal activity) (ABUTH [3]) [%] | Pre-emergence action against ABUTH (herbicidal activity in percent) (ABUTH [3]) [%] | Post-emergence action against ABUTH in % (ABUTH [4]; dosage 20 g/ha) [%] | Post-emergence action against ALOMY in % (ALOMY [6]) [%] | Pre-emergence action against PHBPU in % (PHBPU [7]) [%] | Pre-emergence action against ALOMY (herbicidal activity) (ALOMY [9]) [%] | Post-emergence action against MATIN in % (MATIN [10]; dosage 20 g/ha) [%] | Pre-emergence action against POLCO in % (POLCO; dosage 80 g/ha) [%] | Pre-emergence action against VIOTR in % (VIOTR [11]; dosage 20 g/ha) [%] | Pre-emergence action against VIOTR in % (VIOTR [11]; dosage 80 g/ha) [%] | Pre-emergence action against SETVI in % (SETVI [13]; dosage 80 g/ha) [%] | Post-emergence action at 20 g/ha against AVEFA in % (AVEFA [14]) [%] | Post-emergence action at 20 g/ha against AMARE in % (AMARE [15]) [%] | Pre-emergence action against ECHCG in % (ECHCG [16]; 80 g/ha) [%] | Post-emergence action against VERPE in % (VERPE [17]; 20 g/ha) [%] | Pre-emergence action against MATIN in % (MATIN [18]; dosage 20 g/ha) [%] | Pre-emergence action against MATIN in % (MATIN [18]; dosage 80 g/ha) [%] | further results
CSc1c(C(=O)Nc2nnnn2C)ccc(C(F)(F)F)c1C(=O)NCC(F)F [Example 1-86] | 100 | 100 | 80 | 100 | 100 | 100 | 100 | 80 | 100 | 80 | 80 | 100 | 100 | 100 | 100 | 100 | 100 | 90 | 100 | 100 | Post-emergence action against ABUTH in % (ABUTH [4]; dosage 5 g/ha): 100%; Post-emergence action against VIOTR in % (VIOTR [5]; 5 g/ha): 90%; Post-emergence action against VIOTR in % (VIOTR [5]; 20 g/ha): 100%; Post-emergence action against PHBPU in % (PHBPU [8]; dosage 5 g/ha): 80%; Post-emergence action against PHBPU in % (PHBPU [8]; dosage 20 g/ha): 90%; Post-emergence action against ECHCG in % (ECHCG [12]; dosage 5 g/ha): 80%; Post-emergence action against ECHCG in % (ECHCG [12]; dosage 20 g/ha): 100%; Pre-emergence action against SETVI in % (SETVI [13]; dosage 20 g/ha): 80%; Pre-emergence action against ECHCG in % (ECHCG [16]; 20 g/ha): 90%; Pre-emergence action against AVEFA in % (AVEFA [19]): 100%; Pre-emergence action against VERPE in % (VERPE [20]): 100%
Cn1nnnc1NC(=O)c1ccc(C(F)(F)F)c(C(=O)NCC(F)F)c1C1CC1 [Example 1-291] | 100 | 100 | 80 | 100 | 100 | 90 | 90 | 80 | 80 | 90 | 80 | 100 | 100 | 100 | 80 | 90 | 90 | 80 | 90 | 100 | Post-emergence action against ABUTH in % (ABUTH [4]; dosage 5 g/ha): 80%; Post-emergence action against VIOTR in % (VIOTR [5]; 5 g/ha): 90%; Post-emergence action against VIOTR in % (VIOTR [5]; 20 g/ha): 100%; Post-emergence action against PHBPU in % (PHBPU [8]; dosage 5 g/ha): 80%; Post-emergence action against PHBPU in % (PHBPU [8]; dosage 20 g/ha): 90%; Post-emergence action against MATIN in % (MATIN [10]; dosage 5 g/ha): 80%; Post-emergence action against ECHCG in % (ECHCG [12]; dosage 5 g/ha): 80%; Post-emergence action against ECHCG in % (ECHCG [12]; dosage 20 g/ha): 80%; Post-emergence action against DIGSA in % (DIGSA [21]; 5 g/ha): 90%; Post-emergence action against DIGSA (DIGSA [21]): 100%; Pre-emergence action against DIGSA in % (DIGSA [22]; dosage 20 g/ha): 100%; Pre-emergence action against DIGSA in % (DIGSA [22]; dosage 80 g/ha): 100%
CCn1nnnc1NC(=O)c1ccc(C(F)(F)F)c(C(=O)NC(C)C2CC2)c1C (centres unmarked) [Example 2-31] | 100 | 100 |  | 100 | 100 | 80 | 80 | 80 | 80 | 80 | 80 | 100 | 100 | 100 | 80 | 80 | 100 | 80 | 100 | 100 | Post-emergence action against PHBPU in % (PHBPU [8]; dosage 5 g/ha): 80%; Post-emergence action against PHBPU in % (PHBPU [8]; dosage 20 g/ha): 90%; Post-emergence action against MATIN in % (MATIN [10]; dosage 5 g/ha): 80%; Pre-emergence action against POLCO in % (POLCO; dosage 20 g/ha): 80%; Post-emergence action against ECHCG in % (ECHCG [12]; dosage 5 g/ha): 80%; Post-emergence action against ECHCG in % (ECHCG [12]; dosage 20 g/ha): 90%; Post-emergence action against DIGSA (DIGSA [21]): 80%; Pre-emergence action against AVEFA in % (AVEFA [19]): 100%; Pre-emergence action against DIGSA in % (DIGSA [22]; dosage 20 g/ha): 100%; Pre-emergence action against DIGSA in % (DIGSA [22]; dosage 80 g/ha): 100%
CCc1c(C(=O)Nc2nnnn2CC)ccc(C(F)(F)F)c1C(=O)NC [Example 2-271] | 100 | 100 | 100 | 100 | 100 | 100 | 100 | 100 | 80 | 100 | 80 | 100 | 100 | 100 | 80 | 100 | 100 | 90 | 100 | 100 | Post-emergence action against SETVI in % (SETVI [2]; dosage 5 g/ha): 100%; Post-emergence action against ABUTH in % (ABUTH [4]; dosage 5 g/ha): 100%; Post-emergence action against VIOTR in % (VIOTR [5]; 5 g/ha): 80%; Post-emergence action against VIOTR in % (VIOTR [5]; 20 g/ha): 80%; Post-emergence action against MATIN in % (MATIN [10]; dosage 5 g/ha): 100%; Pre-emergence action against SETVI in % (SETVI [13]; dosage 20 g/ha): 100%; Post-emergence action against VERPE in % (VERPE [17]; 5 g/ha): 80%; Pre-emergence action against DIGSA in % (DIGSA [22]; dosage 20 g/ha): 100%; Pre-emergence action against DIGSA in % (DIGSA [22]; dosage 80 g/ha): 100%; Pre-emergence action against VERPE in % (VERPE [20]): 100%
